According to PubChem BioAssay (NCI):
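Five compound concentrations were applied to cells in 96-well plates for 48 hours; endpoints were derived by simple linear interpolation of the resulting dose-response curve. GI50 marks 50% less growth. TGI: concentration producing complete growth inhibition.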

Legend:
Assay in all cases: inhibition of tumour cell growth, NCI panel, 48 h
[1] = system: SNB-75 CNS
[2] = system: NCI/ADR-RES ovarian
[3] = system: OVCAR-4 ovarian
[4] = system: SF-295 CNS
[5] = system: CCRF-CEM leukemia
[6] = system: EKVX NSCLC
[7] = system: MOLT-4 leukemia
[8] = system: MDA-MB-435
[9] = system: HL-60(TB) leukemia
[10] = system: UACC-257 melanoma
[11] = system: HOP-92 NSCLC
[12] = system: SK-MEL-28 melanoma
[13] = system: RPMI-8226 leukemia
[14] = system: U251 CNS
[15] = system: UO-31 renal
[16] = system: NCI-H460 lung
[17] = system: A549 NSCLC
[18] = system: SF-539 CNS
[19] = system: RXF 393 renal
[20] = system: KM12 colon
[21] = system: ACHN renal
[22] = system: OVCAR-8 ovarian
[23] = system: HS 578T breast
[24] = system: MDA-MB-231 breast
[25] = system: 786-0 renal
[26] = system: SW-620 colon
[27] = system: NCI-H522 lung
[28] = system: HCT-15 colon
[29] = system: NCI-H23 lung
[30] = system: SK-MEL-2 melanoma
[31] = system: COLO 205 colon
[32] = system: UACC-62 melanoma
[33] = system: OVCAR-3 ovarian
[34] = system: HT29 colon
[35] = system: K-562 leukemia
[36] = system: OVCAR-5 ovarian
[37] = system: BT-549 breast
[38] = system: PC-3 prostate
[39] = system: SNB-19 CNS
[40] = system: HCT-116 colon
[41] = system: M14 melanoma
[42] = system: DU-145 prostate
[43] = system: MCF7 breast
[44] = system: HOP-62 NSCLC
[45] = system: LOX IMVI melanoma
[46] = system: SR leukemia
[47] = system: A498 renal
[48] = system: TK-10 renal
[49] = system: SK-OV-3 ovarian
[50] = system: SN12C renal
[51] = system: HCC-2998 colon
[52] = system: NCI-H226 lung
[53] = system: SF-268 CNS
[54] = system: SK-MEL-5 melanoma
[55] = system: T-47D breast
[56] = system: IGROV1 ovarian
[57] = system: MALME-3M melanoma
[58] = system: CAKI-1 renal

O=C(C1CC1)N1CC[C@@H](Cc2n[nH]c(=O)n2-c2ccc(-c3ccc4occc4c3)cc2)C1
GI50 [1]: 13.7 µM
TGI [1]: > 94.1 µM
GI50 [2]: 30.8 µM
TGI [2]: > 100 µM
GI50 [3]: 9.02 µM
TGI [3]: > 94.5 µM
GI50 [4]: 11.5 µM
TGI [4]: > 100 µM
GI50 [5]: 15.6 µM
TGI [5]: > 100 µM
GI50 [6]: 12.6 µM
TGI [6]: > 100 µM
GI50 [7]: 6.09 µM
TGI [7]: > 88.5 µM
GI50 [8]: 14.8 µM
TGI [8]: > 87.6 µM
GI50 [9]: 0.131 µM
TGI [9]: > 44.4 µM
GI50 [10]: 29 µM
TGI [10]: > 96.6 µM
GI50 [11]: 24.4 µM
TGI [11]: > 100 µM
GI50 [12]: 32 µM
TGI [12]: > 100 µM
GI50 [13]: 2.82 µM
TGI [13]: > 75.4 µM
GI50 [14]: 25.4 µM
TGI [14]: > 100 µM
GI50 [15]: 1.91 µM
TGI [15]: 65.4 µM
GI50 [16]: 3.2 µM
TGI [16]: > 100 µM
GI50 [17]: 16.9 µM
TGI [17]: > 100 µM
GI50 [18]: 8.16 µM
TGI [18]: > 100 µM
GI50 [19]: 24.2 µM
TGI [19]: > 100 µM
GI50 [20]: 17.6 µM
TGI [20]: > 100 µM
GI50 [21]: 11.8 µM
TGI [21]: 54.8 µM
GI50 [22]: 25.3 µM
TGI [22]: > 100 µM
GI50 [23]: 21.3 µM
TGI [23]: > 100 µM
GI50 [24]: 20.4 µM
TGI [24]: > 100 µM
GI50 [25]: 12.3 µM
TGI [25]: > 100 µM
GI50 [26]: 27.6 µM
TGI [26]: > 100 µM
GI50 [27]: 20.9 µM
TGI [27]: > 92 µM
GI50 [28]: 11.2 µM
TGI [28]: > 100 µM
GI50 [29]: 39.1 µM
TGI [29]: > 100 µM
GI50 [30]: 21.5 µM
TGI [30]: 70.3 µM
GI50 [31]: 15 µM
TGI [31]: 72.5 µM
GI50 [32]: 21.1 µM
TGI [32]: > 100 µM
GI50 [33]: 15.8 µM
TGI [33]: > 73.7 µM
GI50 [34]: 7.51 µM
TGI [34]: > 81.1 µM
GI50 [35]: 8.18 µM
TGI [35]: > 100 µM
GI50 [36]: 42.5 µM
TGI [36]: > 100 µM
GI50 [37]: 1.65 µM
TGI [37]: 48.7 µM
GI50 [38]: 23.2 µM
TGI [38]: > 100 µM
GI50 [39]: 17 µM
TGI [39]: > 100 µM
GI50 [40]: 14.3 µM
TGI [40]: 84 µM
GI50 [41]: 17.2 µM
TGI [41]: > 100 µM
GI50 [42]: 23.4 µM
TGI [42]: > 100 µM
GI50 [43]: 1.62 µM
TGI [43]: > 100 µM
GI50 [44]: 23.4 µM
TGI [44]: > 100 µM
GI50 [45]: 10.3 µM
TGI [45]: 51.3 µM
GI50 [46]: 23.9 µM
TGI [46]: > 100 µM
GI50 [47]: 15 µM
TGI [47]: > 85.4 µM
GI50 [48]: 28.3 µM
TGI [48]: > 100 µM
GI50 [49]: 25.4 µM
TGI [49]: > 100 µM
GI50 [50]: 23.2 µM
TGI [50]: > 100 µM
GI50 [51]: 33.9 µM
TGI [51]: > 100 µM
GI50 [52]: 19.6 µM
TGI [52]: > 100 µM
GI50 [53]: 12.4 µM
TGI [53]: > 100 µM
GI50 [54]: 12 µM
TGI [54]: 33.6 µM
GI50 [55]: 18 µM
TGI [55]: > 96.5 µM
GI50 [56]: 21.2 µM
TGI [56]: > 100 µM
GI50 [57]: 22.4 µM
TGI [57]: > 87.8 µM

Cc1oc2nc[nH]c(=O)c2c1C(=O)/C=C/c1ccc(Br)cc1
GI50 [1]: 1.23 µM
TGI [1]: 9.62 µM
GI50 [2]: 1.84 µM
TGI [2]: 20.8 µM
GI50 [3]: 2.51 µM
TGI [3]: 13.1 µM
GI50 [4]: 4.22 µM
TGI [4]: 15 µM
GI50 [5]: 1.01 µM
TGI [5]: 30.6 µM
GI50 [6]: 2.37 µM
TGI [6]: 12.8 µM
GI50 [7]: 2.84 µM
TGI [7]: 17.9 µM
GI50 [8]: 2 µM
TGI [8]: 6.69 µM
GI50 [9]: 2.32 µM
TGI [9]: 10.3 µM
GI50 [10]: 2.37 µM
TGI [10]: 11.3 µM
GI50 [11]: 1.35 µM
TGI [11]: 6.86 µM
GI50 [12]: 2.39 µM
TGI [12]: 8.3 µM
GI50 [13]: 1.36 µM
TGI [13]: 6.91 µM
GI50 [14]: 1.44 µM
TGI [14]: 3.17 µM
GI50 [15]: 0.781 µM
TGI [15]: 7.39 µM
GI50 [16]: 3.25 µM
TGI [16]: 11 µM
GI50 [17]: 2.73 µM
TGI [17]: 14.2 µM
GI50 [18]: 1.73 µM
TGI [18]: 4.64 µM
GI50 [19]: 1.41 µM
TGI [19]: 3.22 µM
GI50 [20]: 1.51 µM
TGI [20]: 3.44 µM
GI50 [21]: 1.6 µM
TGI [21]: 5.61 µM
GI50 [22]: 2.08 µM
TGI [22]: 88.3 µM
GI50 [23]: 3.49 µM
TGI [23]: 38.9 µM
GI50 [24]: 3.47 µM
TGI [24]: 17.8 µM
GI50 [25]: 1.8 µM
TGI [25]: 3.97 µM
GI50 [26]: 2.16 µM
TGI [26]: 7.09 µM
GI50 [27]: 1.89 µM
TGI [27]: 5.76 µM
GI50 [28]: 1.09 µM
TGI [28]: 4.96 µM
GI50 [29]: 2.07 µM
TGI [29]: 7.82 µM
GI50 [30]: 2.34 µM
TGI [30]: 7.1 µM
GI50 [31]: 1.7 µM
TGI [31]: 5.5 µM
GI50 [32]: 1.33 µM
TGI [32]: 3.03 µM
GI50 [33]: 1.85 µM
TGI [33]: 5.74 µM
GI50 [34]: 2.36 µM
TGI [34]: 6.3 µM
GI50 [35]: 0.798 µM
TGI [35]: > 100 µM
GI50 [36]: 2.93 µM
TGI [36]: 9.32 µM
GI50 [37]: 1.74 µM
TGI [37]: 4.13 µM
GI50 [38]: 2.36 µM
TGI [38]: 15.6 µM
GI50 [39]: 1.8 µM
TGI [39]: 5.44 µM
GI50 [40]: 1.26 µM
TGI [40]: 2.82 µM
GI50 [41]: 2.14 µM
TGI [41]: 8.53 µM
GI50 [42]: 2.03 µM
TGI [42]: 7.85 µM
GI50 [43]: 0.505 µM
TGI [43]: 11.5 µM
GI50 [44]: 2.62 µM
TGI [44]: 9.73 µM
GI50 [45]: 1.03 µM
TGI [45]: 2.43 µM
GI50 [46]: 1.35 µM
TGI [46]: 16.3 µM
GI50 [47]: 2.46 µM
TGI [47]: 6.82 µM
GI50 [48]: 4.46 µM
TGI [48]: 13.3 µM
GI50 [49]: 4.08 µM
TGI [49]: 15.5 µM
GI50 [50]: 2.95 µM
TGI [50]: 11.9 µM
GI50 [58]: 1.34 µM
TGI [58]: 11.5 µM
GI50 [51]: 1.7 µM
TGI [51]: 3.26 µM
GI50 [53]: 3.08 µM
TGI [53]: 17.5 µM
GI50 [54]: 1.56 µM
TGI [54]: 3.27 µM
GI50 [55]: 1.86 µM
TGI [55]: 14.2 µM
GI50 [56]: 1.81 µM
TGI [56]: 10.2 µM
GI50 [57]: 1.89 µM
TGI [57]: 6 µM
